These results are taken from patent US20230192700A1, “PYRAZOLOPYRAZINES ACTING ON CANCERS VIA INHIBITION OF CDK12” (Bayer Aktiengesellschaft, priority 2020, published 2023).

Experiment [1] deals with T1, CDK2/CyclinE (Homo sapiens, UniProt P24941).
T1 construct: GST; purchased ProQinase GmbH (Freiburg, Germany); host or cells: insect cells (Sf9)
Put plainly: CDK2/CycE kinase assay (TR-FRET). The class given is biochemical. To be noted: 2 mM ATP (high ATP); median; read-out: CDK2/CyclinE, 2 mM ATP (high ATP) IC50 - [mol/l] (median). Summed up:
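GST-tagged human CDK2/CycE (Sf9-expressed, ~10 ng/mL) was preincubated 15 min with compound, then run 25 min at 22 °C with 2 mM ATP and 0.75 μM biotinylated peptide, pH 8.0. Phospho-substrate was detected by TR-FRET (anti-RB pSer807/811, Eu-anti-mouse, streptavidin-XL665), 665/620 nm ratio, normalised to no-inhibitor and no-enzyme controls.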

For experiment [2], the target named is T2, CDK12 (Homo sapiens, UniProt Q9NYV4).
T2 construct: endogenous in cells; host or cells: CAL-120 human breast cancer cells (DSMZ ACC 459)
T2 sequence (Q9NYV4 whole entry): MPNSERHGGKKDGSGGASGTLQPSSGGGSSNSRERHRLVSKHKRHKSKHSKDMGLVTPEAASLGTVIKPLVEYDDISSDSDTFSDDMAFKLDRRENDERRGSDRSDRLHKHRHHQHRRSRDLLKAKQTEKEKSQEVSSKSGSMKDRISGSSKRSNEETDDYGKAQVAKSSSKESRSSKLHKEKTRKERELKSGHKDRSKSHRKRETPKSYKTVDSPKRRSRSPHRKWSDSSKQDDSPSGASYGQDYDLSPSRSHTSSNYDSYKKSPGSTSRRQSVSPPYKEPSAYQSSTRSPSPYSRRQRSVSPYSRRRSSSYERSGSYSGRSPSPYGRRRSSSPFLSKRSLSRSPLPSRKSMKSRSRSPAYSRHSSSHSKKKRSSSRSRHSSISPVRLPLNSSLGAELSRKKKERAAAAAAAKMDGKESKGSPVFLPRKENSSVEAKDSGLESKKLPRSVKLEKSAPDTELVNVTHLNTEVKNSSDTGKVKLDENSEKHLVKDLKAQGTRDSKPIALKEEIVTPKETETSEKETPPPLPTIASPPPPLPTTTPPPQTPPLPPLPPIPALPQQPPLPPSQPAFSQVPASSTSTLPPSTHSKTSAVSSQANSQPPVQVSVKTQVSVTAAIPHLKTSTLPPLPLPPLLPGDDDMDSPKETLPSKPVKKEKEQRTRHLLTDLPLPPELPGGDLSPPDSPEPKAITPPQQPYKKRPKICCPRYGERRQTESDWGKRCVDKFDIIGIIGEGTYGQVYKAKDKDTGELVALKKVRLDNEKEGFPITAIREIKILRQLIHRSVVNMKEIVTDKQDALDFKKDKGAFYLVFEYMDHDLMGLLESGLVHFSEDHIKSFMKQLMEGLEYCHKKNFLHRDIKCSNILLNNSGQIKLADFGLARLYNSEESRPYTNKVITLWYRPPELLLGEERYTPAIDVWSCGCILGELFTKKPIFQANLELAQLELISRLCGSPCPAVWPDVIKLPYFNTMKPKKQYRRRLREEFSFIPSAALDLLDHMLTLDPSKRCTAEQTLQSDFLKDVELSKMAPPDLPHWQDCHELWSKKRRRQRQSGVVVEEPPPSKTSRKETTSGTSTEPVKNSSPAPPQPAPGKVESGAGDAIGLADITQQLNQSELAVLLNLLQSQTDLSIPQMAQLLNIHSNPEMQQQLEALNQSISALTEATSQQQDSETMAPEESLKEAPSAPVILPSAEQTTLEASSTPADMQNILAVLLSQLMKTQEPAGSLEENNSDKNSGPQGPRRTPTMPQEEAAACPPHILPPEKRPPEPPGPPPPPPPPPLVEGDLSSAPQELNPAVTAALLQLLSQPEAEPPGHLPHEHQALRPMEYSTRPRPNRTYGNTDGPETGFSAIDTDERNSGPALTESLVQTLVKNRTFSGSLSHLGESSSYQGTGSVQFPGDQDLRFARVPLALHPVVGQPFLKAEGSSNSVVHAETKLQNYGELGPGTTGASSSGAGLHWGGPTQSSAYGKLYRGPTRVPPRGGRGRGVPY
T2 sequence (O75909 whole entry partner): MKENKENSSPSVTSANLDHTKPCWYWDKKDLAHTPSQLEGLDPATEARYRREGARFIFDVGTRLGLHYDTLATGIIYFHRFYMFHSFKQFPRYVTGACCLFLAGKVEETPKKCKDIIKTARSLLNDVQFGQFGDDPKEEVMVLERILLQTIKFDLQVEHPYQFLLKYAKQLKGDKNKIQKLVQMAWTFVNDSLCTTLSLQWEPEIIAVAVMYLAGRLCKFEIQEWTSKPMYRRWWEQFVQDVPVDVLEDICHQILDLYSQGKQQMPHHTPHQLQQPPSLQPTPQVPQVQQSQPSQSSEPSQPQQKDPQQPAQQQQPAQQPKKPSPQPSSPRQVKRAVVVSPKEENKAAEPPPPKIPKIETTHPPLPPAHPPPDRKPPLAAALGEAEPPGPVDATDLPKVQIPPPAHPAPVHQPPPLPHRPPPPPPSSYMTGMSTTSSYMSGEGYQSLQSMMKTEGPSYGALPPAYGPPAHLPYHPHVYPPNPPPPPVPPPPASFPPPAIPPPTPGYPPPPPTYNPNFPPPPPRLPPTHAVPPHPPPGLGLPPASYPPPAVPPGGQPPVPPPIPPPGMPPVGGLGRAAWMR
Put plainly: CDK12 nuclear protein level: immunofluorescence/high content analysis in CAL-120 cells. The experiment is classed as cell-based. To be noted: for DC50: CAL-120 cells, 24 h, nuclear CDK12 staining intensity, median, read-out: CDK12 degradation IF DC50 - [mol/l] (median); for (IC50 CDK12 high ATP) to (Degradation DC50 CDK12) ratio: ratio of IC50 CDK12 hATP (2 mM ATP) to DC50 CDK12 (IF, CAL-120). Summed up: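 Cells were exposed to compounds in dose-response for 24 h at 37 °C, then PFA-fixed, immunostained for CDK12 and counterstained with Hoechst before confocal imaging. Nuclear CDK12 intensity was normalized to DMSO and control. DC50 is the concentration giving 50% reduction of nuclear staining.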

In the case of `CC(C)(O)Cn1nc(NCc2nc3ccccc3[nH]2)c2ncc(C3CC3)nc21` [Example 69, 1-(3-{[(1H-benzimidazol-2-yl)methyl]amino}-6-cyclopropyl-1H-pyrazolo[3,4-b]pyrazin-1-yl)-2-methylpropan-2-ol], the IC50 in experiment [1] is above 20000 nM. In addition, in experiment [2], the DC50 is 99.4 nM and the “(IC50 CDK12 high ATP) to (Degradation DC50 CDK12) ratio” value was above 101.

`O[C@H]1C[C@H](Cn2nc(NCc3nc4ccccc4[nH]3)c3ncc(C4CC4)nc32)C1` [Example 70, trans-3-[(3-{[(1H-benzimidazol-2-yl)methyl]amino}-6-cyclopropyl-1H-pyrazolo[3,4-b]pyrazin-1-yl)methyl]cyclobutan-1-ol]: the IC50 in experiment [1] was above 20000 nM. Besides, the DC50 in experiment [2] came to 10.8 nM.

Take `O[C@H]1C[C@@H](Cn2nc(NCc3nc4ccccc4[nH]3)c3ncc(C4CC4)nc32)C1` [Example 71, cis-3-[(3-{[(1H-benzimidazol-2-yl)methyl]amino}-6-cyclopropyl-1H-pyrazolo[3,4-b]pyrazin-1-yl)methyl]cyclobutan-1-ol]: the IC50 in experiment [1] was above 20000 nM. In experiment [2], the DC50 turned out to be 27.7 nM.

Turning to `OC1(Cn2nc(NCc3nc4ccccc4[nH]3)c3ncc(C4CC4)nc32)CCC1` [Example 72, 1-[(3-{[(1H-benzimidazol-2-yl)methyl]amino}-6-cyclopropyl-1H-pyrazolo[3,4-b]pyrazin-1-yl)methyl]cyclobutan-1-ol], the IC50 in experiment [1] was above 20000 nM. Also, in experiment [2], the DC50 is 18.7 nM and the “(IC50 CDK12 high ATP) to (Degradation DC50 CDK12) ratio” value is above 536.

Take `OC1(Cn2nc(NCc3nc4ccccc4[nH]3)c3ncc(C4CC4)nc32)CCCC1` [Example 73, 1-[(3-{[(1H-benzimidazol-2-yl)methyl]amino}-6-cyclopropyl-1H-pyrazolo[3,4-b]pyrazin-1-yl)methyl]cyclopentan-1-ol]: the IC50 in experiment [1] is above 20000 nM. In addition, in experiment [2], the DC50 is 112 nM and the “(IC50 CDK12 high ATP) to (Degradation DC50 CDK12) ratio” value was above 90.

Consider `OCC1(Cn2nc(NCc3nc4ccccc4[nH]3)c3ncc(C4CC4)nc32)CCC1` [Example 74, {1-[(3-{[(1H-benzimidazol-2-yl)methyl]amino}-6-cyclopropyl-1H-pyrazolo[3,4-b]pyrazin-1-yl)methyl]cyclobutyl}methanol], for which the IC50 in experiment [1] is above 20000 nM. Moreover, in experiment [2], the DC50 was 15.1 nM and the “(IC50 CDK12 high ATP) to (Degradation DC50 CDK12) ratio” value is listed as above 660.

For `c1ccc2[nH]c(CNc3nn(CC4CCC4)c4nc(C5CC5)cnc34)nc2c1` [Example 75, N-[(1H-benzimidazol-2-yl)methyl]-1-(cyclobutylmethyl)-6-cyclopropyl-1H-pyrazolo[3,4-b]pyrazin-3-amine], in experiment [1], the IC50 was above 20000 nM. Also, in experiment [2], the DC50 was 135 nM and the “(IC50 CDK12 high ATP) to (Degradation DC50 CDK12) ratio” value is above 148.

Regarding `CC(C)(O)CCn1nc(NCc2nc3ccccc3[nH]2)c2ncc(C3CC3)nc21` [Example 76, 4-(3-{[(1H-benzimidazol-2-yl)methyl]amino}-6-cyclopropyl-1H-pyrazolo[3,4-b]pyrazin-1-yl)-2-methylbutan-2-ol], the IC50 in experiment [1] is above 20000 nM. Besides, in experiment [2], the DC50 was determined as 2.17 nM and the “(IC50 CDK12 high ATP) to (Degradation DC50 CDK12) ratio” value is above 9202.

`Cc1cnc2c(NCc3nc4ccccc4[nH]3)nn(C3CCN(C)CC3)c2n1` [Example 77, N-[(1H-benzimidazol-2-yl)methyl]-6-methyl-1-(1-methylpiperidin-4-yl)-1H-pyrazolo[3,4-b]pyrazin-3-amine]: in experiment [1], the IC50 is above 20000 nM. Also, in experiment [2], the DC50 worked out at 127 nM and the “(IC50 CDK12 high ATP) to (Degradation DC50 CDK12) ratio” value was above 133.
